Results taken from ChEMBL document CHEMBL1143098, “Design and synthesis of 6-amino-1,4-oxazepane-3,5-dione derivatives as novel broad spectrum anticonvulsants” (2008).

Key:
Mus musculus [1] = organism: Mus musculus; assay: Anticonvulsant activity in ICR mouse after 30 mins by MES test; assay type: functional; conditions: 0.5 h
Mus musculus [2] = organism: Mus musculus; assay: Anticonvulsant activity against pentylenetetrazole-induced seizure in ICR mouse after 30 mins; assay type: functional; conditions: 0.5 h

O=C(NC1COCC(=O)N(Cc2ccc(F)cc2)C1=O)OCc1ccccc1 (stereo unspecified)
ED50 (Mus musculus [1]): > 100 mg/kg
ED50 (Mus musculus [2]): 53.9 mg/kg

O=C(NC1COCC(=O)N(Cc2ccco2)C1=O)OCc1ccccc1 (stereo unspecified)
ED50 (Mus musculus [1]): > 100 mg/kg
ED50 (Mus musculus [2]): 64.1 mg/kg

O=C(NC1COCC(=O)N(Cc2ccccc2)C1=O)OCc1ccccc1 (stereo unspecified)
ED50 (Mus musculus [1]): > 100 mg/kg
ED50 (Mus musculus [2]): 64.1 mg/kg

CCCCCCN1C(=O)COCC(NC(=O)OCc2ccccc2)C1=O (stereo unspecified)
ED50 (Mus musculus [1]): 87.5 mg/kg
ED50 (Mus musculus [2]): 35.6 mg/kg

CC(C)CN1C(=O)COCC(NC(=O)OCc2ccccc2)C1=O (stereo unspecified)
ED50 (Mus musculus [1]): > 100 mg/kg
ED50 (Mus musculus [2]): > 100 mg/kg

O=C(NC1COCC(=O)N(C2CC2)C1=O)OCc1ccccc1 (stereo unspecified)
ED50 (Mus musculus [1]): 87.5 mg/kg
ED50 (Mus musculus [2]): 27 mg/kg

CN1C(=O)COCC(NC(=O)OCc2ccccc2)C1=O (stereo unspecified)
ED50 (Mus musculus [1]): 68.8 mg/kg
ED50 (Mus musculus [2]): 41 mg/kg

CCCN1C(=O)COCC(NC(=O)OCc2ccccc2)C1=O (stereo unspecified)
ED50 (Mus musculus [1]): > 100 mg/kg
ED50 (Mus musculus [2]): > 100 mg/kg

O=C1COCC(NC(=O)OCc2ccccc2)C(=O)N1 (stereo unspecified)
ED50 (Mus musculus [1]): 81.2 mg/kg
ED50 (Mus musculus [2]): 55.1 mg/kg

C=CCN1C(=O)COCC(NC(=O)OCc2ccccc2)C1=O (stereo unspecified)
ED50 (Mus musculus [1]): 70.3 mg/kg
ED50 (Mus musculus [2]): 37.1 mg/kg

CCCCN1C(=O)COCC(NC(=O)OCc2ccccc2)C1=O (stereo unspecified)
ED50 (Mus musculus [1]): 93.8 mg/kg
ED50 (Mus musculus [2]): 34.8 mg/kg

O=C(NC1COCC(=O)N(O)C1=O)OCc1ccccc1 (stereo unspecified)
ED50 (Mus musculus [1]): 93.8 mg/kg
ED50 (Mus musculus [2]): 96.9 mg/kg

CCCC(CCC)C(=O)O [VALPROIC ACID]
ED50 (Mus musculus [1]): 271 mg/kg
ED50 (Mus musculus [2]): 149 mg/kg
